These results are taken from patent publication US20260325473A1, “N-Beta-Hydroxybutyryl-Amino Acids and Related Compositions and Methods” (The Board of Trustees of the Leland Stanford Junior …, priority 2023, published 2026).

Data set [1] in a line: Acute administration in DIO mice in home cages: food intake and plasma BHB-Phe. It is filed as in vivo, mouse. Conditions: mouse, plasma; 50 mg/kg IP, single; read-out: time of peak plasma level. The procedure:
(§1) General animal information. Animal experiments were performed according to procedure approved by the Stanford University Administrative Panel on Laboratory Animal Care (APLAC). Mice were maintained in 12-hr light-dark cycles at 22° C. and ~50% relative humidity and fed a standard irradiated rodent chow diet. Where indicated, high-fat diet (D12492, Research Diets 60% kcal from fat) and ketogenic diet (D06040601, Research Diets, 80% kcal fat/15% kcal protein/5% kcal carbohydrate) was used. Male C57BL/6J (stock no. 000664) and male C57BL/6J DIO mice (stock no. 380050) were purchased from Jackson Laboratory. Male C57BL/6NCrl (stock no. 027) mice were purchased from Charles River Laboratory. Whole body CNDP2-KO mice (catalog number, C57BL/6NCrl-Cndp2em1 (IMPC) Mbp/Mmucd, RRID: MMRRC_043492-UCD) were obtained from the Mutant Mouse Regional Resource Center, a NCRR-NIH funded strain repository. For in vivo injection of mice with metabolites, compounds were dissolved in 18:1:1 (by volume) of saline/Kolliphor EL (Sigma Aldrich)/DMSO. Compounds were administered to mice daily via intraperitoneal injections at 5 μl/g body weight at the indicated doses. For all injection experiments, mice were mock injected with the vehicle for 3-5 days until body weights have stabilized. Sample sizes were determined on the basis of previous experiments using similar methodologies. For metabolite administration experiments, mice were randomly assigned to treatment groups. Experimenters were not blinded to groups.
(§2) Preparation of plasma samples for LC-MS analysis. Plasma was collected from mice via a submandibular bleed into lithium heparin tubes (BD, 365985) and immediately transferred onto ice. […]
(§3) Targeted metabolomics. […] Quantification of the endogenous metabolite concentrations were performed by generating a standard curve with known concentrations of each metabolite. Metabolite standards were analyzed alongside the plasma samples using the same targeted triple quadrupole LC/MS method. […] The dilution of the plasma during the sample preparation was also taken into account for the quantification.

Data set [2] has as its system DIO mice. The description is as above. The settings on record: 50 mg/kg IP. In kind it is in vivo, mouse. As to the method: as §1, §2, §3
The test system of data set [3] is DIO mice. Put plainly: Plasma ghrelin, leptin and GDF-15 in DIO mice. In kind it is in vivo, mouse. The settings on record: 50 mg/kg IP, single; 1 h. As to the method:
Leptin, ghrelin and GDF-15 measurements. Plasma was collected from DIO mice 1 h after the administration of BHB-Phe (50 mg/kg, IP) or vehicle. ELISA kits for leptin (Crystal Chem 90030), ghrelin (Cayman Chemicals 10006307) and GDF-15 (R&D Systems DY6385-05) were used following manufacturer's instructions.

The target of a further data set is T1, CNDP2 (Mus musculus, UniProt Q9D1A2).
T1 sequence (Q9D1A2 1-475): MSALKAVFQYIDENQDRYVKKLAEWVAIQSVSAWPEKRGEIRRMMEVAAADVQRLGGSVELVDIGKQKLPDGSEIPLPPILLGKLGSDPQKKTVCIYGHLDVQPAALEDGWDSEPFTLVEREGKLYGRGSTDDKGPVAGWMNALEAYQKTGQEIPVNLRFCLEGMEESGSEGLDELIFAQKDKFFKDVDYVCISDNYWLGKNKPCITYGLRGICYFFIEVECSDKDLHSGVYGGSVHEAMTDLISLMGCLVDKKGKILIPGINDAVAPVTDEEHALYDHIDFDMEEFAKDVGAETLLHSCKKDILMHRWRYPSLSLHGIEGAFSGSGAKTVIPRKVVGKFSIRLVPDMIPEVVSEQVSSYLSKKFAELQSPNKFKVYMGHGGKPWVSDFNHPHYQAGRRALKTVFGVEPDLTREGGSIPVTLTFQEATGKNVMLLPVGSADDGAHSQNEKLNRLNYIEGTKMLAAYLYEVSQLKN
Put plainly: In vitro synthase (condensation) activity, lysates of CNDP2-transfected HEK293T cells. It is filed as biochemical. Set-up: expressed in transfected cells; host or cells: HEK293T (lysate). Conditions: role: product. As to the method:
In vitro enzyme activity assays. HEK293T cells were transfected with GFP, CNDP2 or CNDP2-E166A using PolyFect (Qiagen 301105) according to the manufacturer's instructions. The medium was changed one day post-transfection. After an additional 24 h, the cells were harvested in PBS, lysed by sonication and centrifuged (10 min at 15,000 rpm) to remove debris. Supernatant was collected and protein concentrations were adjusted. The in vitro reactions were conducted in Eppendorf tubes with 100 μL of 1 mg/mL protein and 20 mM substrates for keto amino acid synthase activity assays and. Reactions were incubated for 1 h at 37° C. and 20 μl of 1 M HCl were added to acidify the medium and to protonate keto amino acids. Reactions were vortexed and 400 μL of ethyl acetate were added to each reaction. Reactions were vortexed for 30 s to extract keto amino acids into the organic layer and centrifuged at 4° C. for 10 min at 15,000 r.p.m. A total of 300 μl from the top layer was transferred to a new Eppendorf tube and dried down under a stream of nitrogen. The residue was re-suspended in 150 μl of an 2:1:1 mixture of acetonitrile: methanol: water. The mixture was centrifuged at 4° C. for 10 min at 15,000 r.p.m. and the supernatant was transferred to a LC-MS vial.

The test system of data set [4] is DIO mice. The data set can be described thus: Plasma AST, ALT, TG, HDL, LDL in DIO mice after chronic treatment. In kind it is in vivo, mouse. Conditions: 50 mg/kg/day IP; 14 days. As to the method: as §1

Bounds are passed on as bounds.

For the molecule `CC(O)CC(=O)N[C@@H](Cc1ccccc1)C(=O)O` (stereo partly shown) [BHB-Phe, N-betahydroxybutyryl-phenylalanine], the Tmax in data set [1] was 1 h. Also, the “time to return of plasma level to largely baseline values” in the data set with DIO mice [2] (single) is recorded as no more than 3 h. For the same molecule, the “food intake after single administration (home cages)” value in the data set on DIO mice [2] (3 h and 1 h) is listed as “suppressed food intake at a 3 h, but not 1 h time point”. In the data set with DIO mice [3], the “plasma GDF15” value is reported as “unaltered”, the plasma ghrelin entry is reported as “unaltered” and the plasma leptin result is recorded as “unaltered”. For the same molecule, on CNDP2 (BHB alone with 20 mM phenylalanine), the “product formed with BHB and phenylalanine as only substrates” value was “exclusive product formed”. The “products formed from combined lactate and BHB” value on CNDP2 (lactate and BHB at varying concentrations, phenylalanine 20 mM) is given as “simultaneous production”. Besides, in the data set on DIO mice [4], the “plasma ALT” value is “reductions”, the “plasma AST” value is listed as “reductions”, the “plasma HDL-cholesterol” value is “no changes” and the “plasma LDL-cholesterol” value was “no changes”. Further, the “plasma total triglycerides (TG)” value in the data set with DIO mice [4] is listed as “reductions”.
